According to the supplement of paper PMC10307832:

Columns and labels:
Assay in all cases: relative viability (nuclei count vs DMSO), 5 days (fraction); higher = more cells survive
NCI-H2347 = tested on: NCI-H2347
Method in brief: (§1)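 Dosing by pin tool came one day after lung cancer cell lines were seeded in 1536-well plates, using either one drug or a fixed anchor-drug dose plus five library-drug doses (not always all listed) in √10 steps. After 5 days, nuclei were counted on 4× images. Relative viability is treated-well nuclei count divided by vehicle-well nuclei count, and values are medians of duplicate plates.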

LCLC-103H = tested on: LCLC-103H
Method in brief: as §1

NCI-H23 = tested on: NCI-H23
Method in brief: as §1

NCI-H2087 = tested on: NCI-H2087
Method in brief: as §1

NCI-H2126 = tested on: NCI-H2126
Method in brief: as §1

NCI-H727 = tested on: NCI-H727
Method in brief: as §1

HCC-44 = tested on: HCC-44
Method in brief: as §1

NCI-H647 = tested on: NCI-H647
Method in brief: as §1

NCI-H838 = tested on: NCI-H838
Method in brief: as §1

NCI-H1395 = tested on: NCI-H1395
Method in brief: as §1

BEN = tested on: BEN
Method in brief: as §1

CC1(C)CCC(c2ccc(Cl)cc2)=C(CN2CCN(c3ccc(C(=O)NS(=O)(=O)c4ccc(N[C@H](CCN5CCOCC5)CSc5ccccc5)c(S(=O)(=O)C(F)(F)F)c4)cc3)CC2)C1 [Navitoclax] + NC(=O)Nc1cc(-c2cccc(F)c2)sc1C(=O)N[C@H]1CCCNC1 [AZD7762] (partner 0.2 µM)
relative viability (NCI-H2347; first compound 0.05 µM): 0.579 | relative viability (NCI-H2347; first compound 0.1581 µM): 0.685 | relative viability (NCI-H2347; first compound 0.5 µM): 0.579 | relative viability (LCLC-103H; first compound 0.005 µM): 0.806 | relative viability (LCLC-103H; first compound 0.01581 µM): 0.839 | relative viability (LCLC-103H; first compound 0.05 µM): 0.736 | relative viability (LCLC-103H; first compound 0.1581 µM): 0.826 | relative viability (LCLC-103H; first compound 0.5 µM): 0.8 | relative viability (NCI-H23; first compound 0.005 µM): 0.28 | relative viability (NCI-H23; first compound 0.01581 µM): 0.33 | relative viability (NCI-H23; first compound 0.05 µM): 0.291 | relative viability (NCI-H23; first compound 0.1581 µM): 0.195 | relative viability (NCI-H23; first compound 0.5 µM): 0.23 | relative viability (NCI-H2087; first compound 0.005 µM): 1.18 | relative viability (NCI-H2087; first compound 0.01581 µM): 1.38 | relative viability (NCI-H2087; first compound 0.1581 µM): 1.29 | relative viability (NCI-H2087; first compound 0.5 µM): 1.41 | relative viability (NCI-H2126; first compound 0.005 µM): 1.06 | relative viability (NCI-H2126; first compound 0.01581 µM): 0.931 | relative viability (NCI-H2126; first compound 0.05 µM): 1.05 | relative viability (NCI-H2126; first compound 0.1581 µM): 0.915 | relative viability (NCI-H2126; first compound 0.5 µM): 0.947 | relative viability (NCI-H727; first compound 0.005 µM): 0.656 | relative viability (NCI-H727; first compound 0.01581 µM): 0.595 | relative viability (NCI-H727; first compound 0.05 µM): 0.539 | relative viability (NCI-H727; first compound 0.1581 µM): 0.674 | relative viability (NCI-H727; first compound 0.5 µM): 0.594 | relative viability (HCC-44; first compound 0.005 µM): 0.935 | relative viability (HCC-44; first compound 0.01581 µM): 0.957 | relative viability (HCC-44; first compound 0.05 µM): 0.961 | relative viability (HCC-44; first compound 0.1581 µM): 0.915 | relative viability (HCC-44; first compound 0.5 µM): 0.881 | relative viability (NCI-H647; first compound 0.005 µM): 0.413 | relative viability (NCI-H647; first compound 0.01581 µM): 0.446 | relative viability (NCI-H647; first compound 0.05 µM): 0.492 | relative viability (NCI-H647; first compound 0.1581 µM): 0.343 | relative viability (NCI-H647; first compound 0.5 µM): 0.438 | relative viability (NCI-H838; first compound 0.005 µM): 0.971 | relative viability (NCI-H838; first compound 0.01581 µM): 0.869 | relative viability (NCI-H838; first compound 0.05 µM): 0.937 | relative viability (NCI-H838; first compound 0.1581 µM): 0.97 | relative viability (NCI-H838; first compound 0.5 µM): 0.957 | relative viability (NCI-H1395; first compound 0.005 µM): 0.368 | relative viability (NCI-H1395; first compound 0.01581 µM): 0.41 | relative viability (NCI-H1395; first compound 0.05 µM): 0.357 | relative viability (NCI-H1395; first compound 0.1581 µM): 0.385 | relative viability (NCI-H1395; first compound 0.5 µM): 0.405 | relative viability (BEN; first compound 0.005 µM): 0.705 | relative viability (BEN; first compound 0.01581 µM): 0.667 | relative viability (BEN; first compound 0.05 µM): 0.647 | relative viability (BEN; first compound 0.1581 µM): 0.725 | relative viability (BEN; first compound 0.5 µM): 0.377
